Data from patent publication US10729643B2, “Methods for administration and methods for treating cardiovascular diseases with resiniferatoxin” (priority 2013, dated 2020).

Legend:
[1] = system: sham and CHF rats (coronary artery ligation); assay: Hemodynamic, morphological and echocardiographic measurements in sham and CHF rats; format: in vivo, rat; settings: for DAP: diastolic arterial pressure; for HR: heart rate; for HW/BW: heart weight/body weight; for LVEDP: left ventricle end-diastolic pressure; for MAP: mean arterial pressure; for SAP: systolic arterial pressure; for WLW/BW: wet lung weight/body weight
Description: In order to desensitize cardiac sympathetic afferents in rats, resiniferatoxin (RTX, 1 mg; Sigma Aldrich) was dissolved in 2 ml of ethanol and mixed with 18 ml of Tween in isotonic saline. RTX (50 μg/ml) was applied twice on the entire left and right ventricles with a swab just prior to coronary ligation. The dose of RTX was determined by preliminary experiments in which we found nearly complete ablation of TRPV1-expressing cardiac nerve endings on the surface of the rat heart for more than 10 weeks. Rat surgery was performed 9-11 weeks post-MI. Rats were anesthetized with urethane (800 mg/kg ip) and α-chloralose (40 mg/kg ip). Renal sympathetic nerve activity (RSNA) and cardiac sympathetic nerve activity (CSNA) were recorded for evaluating basal renal and cardiac sympathetic tone.
More specifically, we examined TRPV1 protein expression in cardiac nerve endings from vehicle and RTX-treated rats using immunofluorescence. Experiments were performed on male Sprague-Dawley rats weighing […]. In brief, terminal experiments were carried out 9-11 weeks after MI in rats treated with either RTX or vehicle. These experiments were approved by the Institutional Animal Care and Use Committee of the University of Nebraska Medical Center and carried out under the guidelines of the National Institutes of Health Guide for the Care and Use of Laboratory Animals. Heart failure was produced by coronary artery ligation as described in (Wang et al., J. Appl. Physiol. 2010; 108:1365-1375; and Wang et al. 2, Am. J. Physiol. Regul. Integr. Comp. Physiol. 2012; 320:R1260-R1270). Cardiac function in all experimental animals was measured 2 and 6 weeks after MI by echocardiography (VEVO 770, Visual Sonics, Inc.) as described in (Wang et al., J. Appl. Physiol. 2010; 108:1365-1375; Wang et al. 2, Am. J. Physiol. Regul. Integr. Comp. Physiol. 2012; 320:R1260-R1270; and Wang et al. 3, J. Physiol. 2010; 588:5033-5047).
This example illustrates an effect of RTX on body weight, organ weight, and hemodynamics in sham and CHF rats.

[2] = system: non-infarcted LV and IVS walls of sham and CHF rats; assay: Cardiac fibrosis: picrosirius red staining and western blot of fibrotic markers; format: in vivo, rat
Description: (§1) This example illustrates the effects of RTX on cardiac fibrosis in sham and CHF rats. Considering that RTX-mediated reduction in LVEDP in CHF rats may be related to an improvement in cardiac compliance, we further evaluated cardiac fibrosis using picrosirus red staining and protein expression of two fibrotic markers (a smooth muscle actin and fibronectin) as well as their upstream activator, transforming growth factor (TGF) β receptor I in the non-infarcted LV and inter-ventricular septum (IVS) walls from sham and CHF rats treated with either vehicle or RTX. For histopathology, the rat heart was fixed in 10% phosphate buffered formalin, embedded in paraffin, and cut into 10 μm serial sections from apex to base. Picrosirius red staining was performed to detect myocardial fibrosis. Immunohistochemistry staining of cleaved caspase 3 (CC3) was also performed in paraffin sections from the same heart tissues which were used for picrosirius red staining experiments.

[3] = system: myocardium of sham and CHF rats; assay: Cardiac apoptosis: TUNEL staining and cleaved caspase 3; format: in vivo, rat
Description: as §1
This example illustrates effects of RTX on cardiac apoptosis in sham and CHF rats. Cardiac remodeling includes hypertrophy, fibrosis and apoptosis. Based on the beneficial effects of RTX on cardiac hypertrophy and cardiac fibrosis in CHF rats, we further investigated the effect of RTX on cardiac apoptosis in sham and CHF rats. TUNEL staining was performed. Terminal deoxynucleotidyl transferase dUTP-mediated nick-end labeling (TUNEL) staining and analysis was performed to evaluate the effect of RTX on cardiac apoptosis. Representative photomicrographs are depicted in FIG. 6A.

post MI rats = assay: Long-term survival of post MI rats; format: in vivo, rat
Description: This example illustrates effects of RTX on the long-term survival rate of post MI rats. […] Over a 6 month period over 50% of vehicle—treated rats died. This contrasts with under 20% of RTX treated—rats.

[4] = system: infarcted heart / CSAR activation; assay: Cardiac plasma extravasation (Evans Blue area); format: in vivo, rat
Description: This example illustrates local anti-inflammatory effects of RTX in the infarcted heart. Myocardial ischemia causes the production and release of several metabolites including bradykinin, prostaglandins and protons that stimulate cardiac sympathetic afferent nerve endings leading to increases in BP, HR and sympathetic nerve activity. As cardiac TRPV1-expressing sympathetic afferents also subserve a “dual sensory-efferent” function and release pro-inflammatory neuropeptides, we hypothesized that plasma extravasation and cardiac neuroinflammation follows myocardial ischemia. […] Inflammation in the infarct area may be due to tissue death whereas in peri-infarct and remote areas may be due to cardiac sympathetic afferent mediated neuroinflammation. This may explain why RTX prevented cardiac inflammation in non-infarct areas to a greater extent than in the infarct area.

[5] = system: nerve endings in the skin; settings: topical administration at the nerve endings in the skin; cited from earlier work
sham and CHF rats = assay: In vivo left ventricular PV loop analysis

For `C=C(C)[C@]12C[C@@H](C)[C@@]34O[C@](Cc5ccccc5)(O[C@@H]1[C@@H]3C=C(COC(=O)Cc1ccc(O)c(OC)c1)C[C@]1(O)C(=O)C(C)=C[C@@H]41)O2` [RTX, resiniferatoxin], the “difference in ejection fraction or fractional shortening” value ([1]; 2 weeks and 6 weeks after MI, CHF+RTX vs CHF+vehicle) was “no significant difference”, the DAP ([1]; CHF + RTX (n = 25), mean ± SE) was 90.8 ± 2.2 mmHg and the Heart weight ([1]; CHF + RTX (n = 25), epicardial RTX 50 μg/ml at coronary ligation, 9-11 weeks post-MI, mean ± SE) was 1650 ± 49 mg. The HR ([1]; CHF + RTX (n = 25), mean ± SE) was 348.3 ± 5.5 bpm, the HW/BW ([1]; CHF + RTX (n = 25), mean ± SE) was 3.8 ± 0.1 mg/g and the LVEDP ([1]; CHF + RTX (n = 25), mean ± SE) was 8.3 ± 0.7 mmHg. For the same compound, the MAP ([1]; CHF + RTX (n = 25), mean ± SE) was 101.3 ± 2.1 mmHg, the Infarct size ([1]; CHF + RTX (n = 25), mean ± SE) was 39.1 ± 1.2 % and the dp/dtmax ([1]; CHF + RTX (n = 25), mean ± SE) was 5446 ± 173. The dp/dtmin ([1]; CHF + RTX (n = 25), mean ± SE) was −4643 ± 149, the SAP ([1]; CHF + RTX (n = 25), mean ± SE) was 120.8 ± 2.3 mmHg and the WLW/BW ([1]; CHF + RTX (n = 25), mean ± SE) was 5.1 ± 0.2 mg/g. The “MI-induced cardiac dilation (LV systolic and diastolic diameters and volumes)” value ([1]; CHF rats, echocardiography) was “significantly reduced”, the “increased LVEDP observed in CHF+vehicle rats” value ([1]; CHF+RTX rats) was “largely prevented” and the “decreased protein expression of in myocardium” value ([1]; CHF+RTX rats, western blot) was “partially reversed”. For the same compound, the blunted dp/dtmin ([1]; CHF+RTX vs CHF+vehicle rats) was “significantly increased”, the “difference in dp/dtmax at rest” value ([1]; CHF+RTX vs CHF+vehicle rats) was “no significant difference” and the “dp/dtmax response to isoproterenol (ISO) stimulation” value ([1]; CHF+RTX vs CHF+vehicle rats) was “significantly greater”. For the same compound, the “heart weight and lung weight-to-body weight ratios” value ([1]; CHF+RTX vs CHF+vehicle rats) was “significant decrease”, the “difference in infarct size” value ([1]; CHF+vehicle vs CHF+RTX rats) was “no significant difference” and the ejection fraction decrease ([1]; RTX treated rats (summary)) was “less”. For the same compound, the Infarct size ([1]; Sham + RTX (n = 20)) was 0%, the DAP ([1]; Sham + RTX (n = 20), mean ± SE) was 92.8 ± 3.2 mmHg and the Heart weight ([1]; Sham + RTX (n = 20), epicardial RTX 50 μg/ml, 9-11 weeks, mean ± SE) was 1430 ± 30 mg. For the same compound, the HR ([1]; Sham + RTX (n = 20), mean ± SE) was 362.0 ± 6.8 bpm, the HW/BW ([1]; Sham + RTX (n = 20), mean ± SE) was 3.3 ± 0.1 mg/g and the LVEDP ([1]; Sham + RTX (n = 20), mean ± SE) was 4.8 ± 0.4 mmHg. It also gave an MAP ([1]; Sham + RTX (n = 20), mean ± SE) of 105.0 ± 3.1 mmHg, a dp/dtmax ([1]; Sham + RTX (n = 20), mean ± SE) of 8601 ± 224 and a dp/dtmin ([1]; Sham + RTX (n = 20), mean ± SE) of −8088 ± 196. The SAP ([1]; Sham + RTX (n = 20), mean ± SE) was 128.8 ± 2.8 mmHg, the WLW/BW ([1]; Sham + RTX (n = 20), mean ± SE) was 4.5 ± 0.1 mg/g and the “differences in cardiac morphological, echocardiographic or hemodynamic parameters” value ([1]; sham+vehicle vs sham+RTX rats) was “no significant differences”. For the same compound, the “picrosirus red staining, alpha smooth muscle actin, fibronectin and TGF β receptor I expression” value ([2]; CHF rats) was “reduced”, the “picrosirus red staining, fibrotic markers and TGF β receptor I” value ([2]; sham rats) was “did not cause any significant change” and the TUNEL-positive cells ([3]; LV infarct, LV peri-infarct, LV remote and IVS regions, CHF+RTX vs CHF+vehicle) was “markedly reduced”. For the same compound, the “increased cleaved caspase 3-positive cardiomyocytes” value ([3]; LV peri-infarct, LV remote and IVS regions, CHF rats, immunohistochemistry) was “largely prevented”, the “elevated protein expression of cleaved caspase 3” value ([3]; LV remote and IVS regions, CHF rats) was “prevented” and the “difference in number of TUNEL-positive cells in the heart” value ([3]; sham+vehicle vs sham+RTX rats) was “no significant difference”. The “long-term (6 months) survival rates” value (post MI rats; CHF rats, epicardial RTX 50 μg/ml at the time of coronary ligation) was “markedly improved”, the “rats that died over a 6 month period” value (post MI rats; RTX treated post MI rats (vehicle: over 50%)) was “under 20%” and the “plasma extravasation following CSAR activation by epicardial capsaicin or bradykinin” value ([4]; chronic CSAR denervation by RTX) was “largely be abolished”. The “cardiac plasma extravasation after MI (Evans Blue area)” value ([4]; epicardial RTX at the time of coronary ligation, day 1 to more than 1 week after MI) was “almost completely abolished”, the “sensitivity to chemical pain stimulation” value [5] was “long-lasting insensitivity” and the “basal contractile function (dP/dtmax, PRSW and ESPVR)” value (sham and CHF rats; CHF rats) was “did not have a significant effect”. For the same compound, the LV chamber size (sham and CHF rats; CHF+RTX vs CHF+vehicle) was “reduction”, the “Tau and LVEDP” value (sham and CHF rats; CHF+RTX vs CHF+vehicle) was “reduced” and the dP/dtmin (sham and CHF rats; CHF+RTX vs CHF+vehicle) was “increased”. The “ventricular stiffness as shown by the EDPVR” value (sham and CHF rats; CHF+RTX vs CHF+vehicle) was “reduced stiffness” and the “contractile and relaxation parameters” value (sham and CHF rats; sham rats) was “no effect”.
